Patent US20220411419A1, “SMALL MOLECULE MODULATORS OF MHC-I” (RetroVirox, Inc., priority 2018, published 2022)

Assays:
in vitro = conditions: human, uninfected SupT1 cells
[1] = system: downmodulation of MHC-I molecules expressed on the surface of HIV infected SupT1 cells; test: cells; conditions: for EC50: Human immunodeficiency virus 1, SUP-T1, read-out: EC50 for inhibition of MHC-I downmodulation utilizing the R1 parameter; for activity at 100 µM: Human immunodeficiency virus 1, SUP-T1, read-out: R1 @ 100 μM (R1 value for MHC-I downmodulation as % of the vehicle control)

Row | SMILES | CC50 at 48 h (in vitro) [µM] | EC50 [1] [µM] | CC50 (in vitro) [µM] | activity at 100 µM [1] [%]
1 | Cc1cccc(OCC(=O)N(C)c2nc3c(s2)CCCC3)c1Br [Compound 117, 2-(2-Bromo-3-methylphenoxy)-N-methyl-N-(4,5,6,7-tetrahydrobenzo[d]thiazol-2-yl)acetamide] | > 125 | 0.95 |  | 
2 | CN(C(=O)COc1cccc2[nH]ccc12)c1nc2c(s1)CCCC2 [Compound 111, 2-((1H-Indol-4-yl)oxy)-N-methyl-N-(4,5,6,7-tetrahydrobenzo[d]thiazol-2-yl) acetamide] | > 125 | 0.18 |  | 
3 | Cc1cccc2sc(NC(=O)COc3cccc4c3OC(C)(C)C4)nc12 [Compound 184, 2-((2,2-Dimethyl-2,3-dihydrobenzofuran-7-yl)oxy)-N-(4-methylbenzo[d]thiazol-2-yl)acetamide] | > 90 | 3.3 |  | 
4 | Cc1csc(NC(=O)COc2ccccc2OC(C)C)n1 [Compound 140, 2-(2-isopropoxyphenoxy)-N-(4-methylthiazol-2-yl)acetamide] | > 125 | 14 |  | 
5 | CC1(C)Cc2cccc(OCC(=O)Nc3cc4ccccc4cn3)c2O1 [Compound 17, 2-((2,2-Dimethyl-2,3-dihydrobenzofuran-7-yl)oxy)-N-(isoquinolin-3-yl) acetamide] | > 125 | 22 |  | 
6 | Cc1csc(N(C(=O)COc2cccc3c2OC(C)(C)C3)c2ccccc2C)n1 [Compound 60, 2-((2,2-Dimethyl-2,3-dihydrobenzofuran-7-yl)oxy)-N-(4-methylthiazol-2-yl)-N-(o-tolyl)acetamide] | > 100 | 3.8 |  | 
7 | CC1(C)Cc2cccc(OCC(=O)N(Cc3ccncc3)c3nc4c(s3)CCCC4)c2O1 [Compound 52, 2-((2,2-Dimethyl-2,3-dihydrobenzofuran-7-yl)oxy)-N-(pyridin-4-ylmethyl)-N-(4,5,6,7-tetrahydrobenzo[d]thiazol-2-yl)acetamide] | 1 | 0.032 |  | 
8 | Cc1cccnc1CN(C(=O)COc1cccc2c1OC(C)(C)C2)c1nc2c(s1)CCCC2 [Compound 42, 2-((2,2-Dimethyl-2,3-dihydrobenzofuran-7-yl)oxy)-N-((3-methylpyridin-2-yl)methyl)-N-(4,5,6,7-tetrahydrobenzo[d]thiazol-2-yl)acetamide] | > 125 | 7.3 |  | 
9 | COc1ccccc1N(C(=O)COc1cccc2c1OC(C)(C)C2)c1nc(C)cs1 [Compound 55, 2-((2,2-Dimethyl-2,3-dihydrobenzofuran-7-yl)oxy)-N-(2-methoxyphenyl)-N-(4-methylthiazol-2-yl)acetamide] | > 125 | 0.21 |  | 
10 | Cc1csc(N(C(=O)COc2cccc3c2OC(C)(C)C3)c2ccncc2)n1 [Compound 95, 2-((2,2-Dimethyl-2,3-dihydrobenzofuran-7-yl)oxy)-N-(4-methylthiazol-2-yl)-N-(pyridin-4-yl)acetamide] | > 125 | 0.95 |  | 
11 | CCOc1ccccc1OCC(=O)N(C)c1nc2c(s1)CCCC2 [Compound 112, 2-(2-Ethoxyphenoxy)-N-methyl-N-(4,5,6,7-tetrahydrobenzo[d]thiazol-2-yl) acetamide] | > 125 | 0.22 |  | 
12 | Cc1csc(N(C(=O)COc2cccc3c2OC(C)(C)C3)c2ccncn2)n1 [Compound 96, 2-((2,2-Dimethyl-2,3-dihydrobenzofuran-7-yl)oxy)-N-(4-methylthiazol-2-yl)-N-(pyrimidin-4-yl)acetamide] | > 125 | > 25 | > 125 | 32
13 | CC1(C)Cc2cccc(OCC(=O)Nc3nc(C(=O)N4CCCCC4)cs3)c2O1 [Compound 151, 2-((2,2-Dimethyl-2,3-dihydrobenzofuran-7-yl)oxy)-N-(4-(piperidine-1-carbonyl)thiazol-2-yl)acetamide] | > 90 | > 25 | > 90 | 51
14 | COc1ccc(OCC(=O)N(C)c2nc3c(s2)CCCC3)cc1 [Compound 127, 2-(4-Methoxyphenoxy)-N-methyl-N-(4,5,6,7-tetrahydrobenzo[d]thiazol-2-yl) acetamide] | > 125 | > 25 |  | 
15 | Cc1cnc(NC(=O)COc2cccc3c2OC(C)(C)C3)s1 [Compound 182, 2-((2,2-Dimethyl-2,3-dihydrobenzofuran-7-yl)oxy)-N-(5-methylthiazol-2-yl) acetamide] | 69 | 0.37 |  | 
16 | CC1(C)Cc2cccc(OCC(=O)N(Cc3ccc[nH]3)c3nc4c(s3)CCCC4)c2O1 [Compound 51, N-((1H-Pyrrol-2-yl)methyl)-2-((2,2-dimethyl-2,3-dihydrobenzofuran-7-yl)oxy)-N-(4,5,6,7-tetrahydrobenzo[d]thiazol-2-yl)acetamide] | > 125 | 0.015 |  | 
17 | CCc1ccc(N(C)C(=O)COc2cccc3c2OC(C)(C)C3)nn1 [Compound 83, 2-((2,2-Dimethyl-2,3-dihydrobenzofuran-7-yl)oxy)-N-(6-ethylpyridazin-3-yl)-N-methylacetamide] | > 125 | 13 |  | 

Row | SMILES | CC50 at 48 h (in vitro) [µM] | EC50 [1] [µM] | CC50 (in vitro) [µM] | activity at 100 µM [1] [%]
18 | Cc1ccc(NC(=O)CCc2cccc3c2OC(C)(C)C3)nn1 [Compound 103, 3-(2,2-Dimethyl-2,3-dihydrobenzofuran-7-yl)-N-(6-methylpyridazin-3-yl) propanamide] | > 100 | 1.48 |  | 
19 | CCc1ccc(NC(=O)COc2cccc3c2OC(C)(C)C3)nc1C [Compound 75, 2-((2,2-Dimethyl-2,3-dihydrobenzofuran-7-yl)oxy)-N-(5-ethyl-6-methylpyridin-2-yl)acetamide] | 120 | 0.21 |  | 
20 | CN(C(=O)CCc1cccc2c1OC(C)(C)C2)c1nc2c(s1)CCCC2 [Compound 106, 3-(2,2-Dimethyl-2,3-dihydrobenzofuran-7-yl)-N-methyl-N-(4,5,6,7-tetrahydrobenzo[d]thiazol-2-yl)propanamide] | > 125 | 0.42 |  | 
21 | Cc1ncccc1OCC(=O)N(C)c1nc2c(s1)CCCC2 [Compound 137, N-Methyl-2-((2-methylpyridin-3-yl)oxy)-N-(4,5,6,7-tetrahydrobenzo[d]thiazol-2-yl)acetamide] | 12 | > 25 |  | 
22 | Cc1csc(N(C(=O)COc2cccc3c2OC(C)(C)C3)c2cccnc2)n1 [Compound 65, 2-((2,2-Dimethyl-2,3-dihydrobenzofuran-7-yl)oxy)-N-(4-methylthiazol-2-yl)-N-(pyridin-3-yl)acetamide] | > 125 | 0.88 |  | 
23 | Cc1ccc(N(Cc2ccccn2)C(=O)COc2cccc3c2OC(C)(C)C3)nc1 [Compound 48, 2-((2,2-Dimethyl-2,3-dihydrobenzofuran-7-yl)oxy)-N-(5-methylpyridin-2-yl)-N-(pyridin-2-ylmethyl)acetamide] | > 100 | 21 |  | 
24 | CC1(C)Cc2cccc(OCC(=O)Nc3cccc4cnccc34)c2O1 [Compound 14, 2-((2,2-Dimethyl-2,3-dihydrobenzofuran-7-yl)oxy)-N-(isoquinolin-5-yl) acetamide] | > 100 | > 25 | > 100 | 18
25 | CC1(C)Cc2cccc(OCC(=O)Nc3nc(C(=O)NCC4CCNC4)cs3)c2O1 (stereo not drawn) [Compound 156, 2-(2-((2,2-dimethyl-2,3-dihydrobenzofuran-7-yl)oxy)acetamido)-N-(pyrrolidin-3-ylmethyl)thiazole-4-carboxamide] | > 90 | > 25 | > 90 | 40
26 | Cc1nc(NC(=O)COc2cccc3c2OC(C)(C)C3)ccc1Br [Compound 72, N-(5-Bromo-6-methylpyridin-2-yl)-2-((2,2-dimethyl-2,3-dihydrobenzofuran-7-yl)oxy)acetamide] | > 100 | 1.4 |  | 
27 | CC1(C)Cc2cccc(OCC(=O)Nc3cccc(Br)n3)c2O1 [Compound 30, N-(6-Bromopyridin-2-yl)-2-((2,2-dimethyl-2,3-dihydrobenzofuran-7-yl)oxy)acetamide] | > 125 | 20 |  | 
28 | Cc1ccc(N(C(=O)COc2cccc3c2OC(C)(C)C3)c2ccccc2)nn1 [Compound 89, 2-((2,2-Dimethyl-2,3-dihydrobenzofuran-7-yl)oxy)-N-(6-methylpyridazin-3-yl)-N-phenylacetamide] | > 100 | 0.38 |  | 
29 | Cc1cnc(NC(=O)COc2cccc3c2OC(C)(C)C3)cc1C [Compound 77, 2-((2,2-Dimethyl-2,3-dihydrobenzofuran-7-yl)oxy)-N-(4,5-dimethylpyridin-2-yl)acetamide] | > 125 | > 25 | > 125 | 21
30 | Cc1ccncc1OCC(=O)N(C)c1nc2c(s1)CCCC2 [Compound 138, N-Methyl-2-((4-methylpyridin-3-yl)oxy)-N-(4,5,6,7-tetrahydrobenzo[d]thiazol-2-yl)acetamide] | > 125 | > 25 |  | 
31 | Cc1ccnc(CN(C(=O)COc2cccc3c2OC(C)(C)C3)c2nc3c(s2)CCCC3)c1 [Compound 41, 2-((2,2-Dimethyl-2,3-dihydrobenzofuran-7-yl)oxy)-N-((4-methylpyridin-2-yl)methyl)-N-(4,5,6,7-tetrahydrobenzo[d]thiazol-2-yl)acetamide] | > 125 | 0.02 |  | 
32 | Cc1csc(N(Cc2ccccc2)C(=O)COc2cccc3c2OC(C)(C)C3)n1 [Compound 159, N-Benzyl-2-((2,2-dimethyl-2,3-dihydrobenzofuran-7-yl)oxy)-N-(4-methylthiazol-2-yl)acetamide] | > 90 | 0.18 |  | 
33 | CN(C(=O)COc1cccc2cc[nH]c12)c1nc2c(s1)CCCC2 [Compound 128, 2-((1H-Indol-7-yl)oxy)-N-methyl-N-(4,5,6,7-tetrahydrobenzo[d]thiazol-2-yl) acetamide] | > 125 | > 25 |  | 
34 | Cc1ccc(CN(C(=O)COc2cccc3c2OC(C)(C)C3)c2ccc(C)cn2)cc1 [Compound 47, 2-((2,2-Dimethyl-2,3-dihydrobenzofuran-7-yl)oxy)-N-(4-methylbenzyl)-N-(5-methylpyridin-2-yl)acetamide] | > 125 | 5.5 |  | 
